Measured values: ChEMBL document CHEMBL1240489, “Discovery of N-{1-[3-(3-oxo-2,3-dihydrobenzo[1,4]oxazin-4-yl)propyl]piperidin-4-yl}-2-phenylacetamide (Lu AE51090): an allosteric muscarinic M1 receptor agonist with unprecedented selectivity and procognitive potential” (J Med Chem, 2010)

Key:
[1] = molecular target: T1, Muscarinic acetylcholine receptor M4 (Homo sapiens) (UniProt P08173); experiment: Agonist activity at human muscarinic M4 receptor expressed in BHK-21 cells coexpressing Galpha16 subunit assessed as increase of acetylcholine-induced calcium flux at 10 uM by FLIPR assay relative to acetylcholine; type: functional, cell-based
T1 sequence (whole entry): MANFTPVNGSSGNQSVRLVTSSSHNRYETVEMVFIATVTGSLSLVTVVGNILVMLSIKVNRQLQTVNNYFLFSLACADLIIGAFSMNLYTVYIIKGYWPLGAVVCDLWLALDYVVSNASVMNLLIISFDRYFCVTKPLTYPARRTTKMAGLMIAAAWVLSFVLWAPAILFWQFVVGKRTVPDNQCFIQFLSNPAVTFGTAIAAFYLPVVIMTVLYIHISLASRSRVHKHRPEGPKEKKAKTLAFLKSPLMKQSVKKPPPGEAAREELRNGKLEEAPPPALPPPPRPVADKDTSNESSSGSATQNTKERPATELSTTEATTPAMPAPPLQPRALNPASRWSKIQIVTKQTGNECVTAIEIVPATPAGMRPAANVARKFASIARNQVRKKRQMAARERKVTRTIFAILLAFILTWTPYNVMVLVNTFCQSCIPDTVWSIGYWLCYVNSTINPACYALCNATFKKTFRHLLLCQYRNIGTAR

Homo sapiens = species: Homo sapiens; experiment: Hepatic blood flow in human; type: ADME, organism-based, Liver
Mus musculus = experiment: Reversal of 60 seconds delay-induced memory decay in sc dosed C57Bl/6J mouse assessed as positive alteration administered for 1 week by Y-maze test; type: functional, organism-based
[2] = Drug level in C57/6J mouse brain at 20 mg/kg, sc after 60 mins; type: ADME, organism-based; design: dose 20 mg/kg, route subcutaneous; conditions: read-out: Activity
[3] = molecular target: 5-hydroxytryptamine receptor 2B (Homo sapiens, UniProt P41595); experiment: Binding affinity to human 5-HT2B agonist site receptor by radioligand displacement assay
D(2) dopamine receptor = D(2) dopamine receptor (Homo sapiens, UniProt P14416); experiment: Binding affinity to human D2S agonist site receptor by radioligand displacement assay
[4] = molecular target: T2, Muscarinic acetylcholine receptor M4 (Homo sapiens, UniProt P08173); experiment: Binding affinity to human muscarinic M4 receptor by radioligand displacement assay
T2 sequence (P08173 whole entry): T1 sequence (whole entry)

[5] = molecular target: Muscarinic acetylcholine receptor M3 (Homo sapiens, UniProt P20309); experiment: Binding affinity to human muscarinic M3 receptor by radioligand displacement assay
[6] = molecular target: Sodium-dependent serotonin transporter (Homo sapiens, UniProt P31645); experiment: Binding affinity to human 5-HT transporter by radioligand displacement assay
[7] = molecular target: Sodium-dependent noradrenaline transporter (Homo sapiens, UniProt P23975); experiment: Binding affinity to human NE transporter by radioligand displacement assay
[8] = Binding affinity to Ca2+ channel by radioligand displacement assay
Adenosine receptor A2a = Adenosine receptor A2a (Homo sapiens, UniProt P29274); experiment: Binding affinity to human adenosine A2A receptor by radioligand displacement assay
[9] = Binding affinity to GABAA receptor by radioligand displacement assay
[10] = molecular target: Alpha-1A adrenergic receptor (Homo sapiens, UniProt P35348); experiment: Binding affinity to human adrenergic alpha1A receptor by radioligand displacement assay
[11] = molecular target: Muscarinic acetylcholine receptor M1 (Homo sapiens, UniProt P11229, Y381A)
[12] = Binding affinity to PDE3 by enzyme assay
[13] = Binding affinity to PDE5 by enzyme assay
[14] = molecular target: Urotensin-2 receptor (Homo sapiens) (UniProt Q9UKP6); experiment: Binding affinity to human UT1 receptor by radioligand displacement assay
Urotensin-2 receptor (Homo sapiens), sequence (Q9UKP6 whole entry, looked up): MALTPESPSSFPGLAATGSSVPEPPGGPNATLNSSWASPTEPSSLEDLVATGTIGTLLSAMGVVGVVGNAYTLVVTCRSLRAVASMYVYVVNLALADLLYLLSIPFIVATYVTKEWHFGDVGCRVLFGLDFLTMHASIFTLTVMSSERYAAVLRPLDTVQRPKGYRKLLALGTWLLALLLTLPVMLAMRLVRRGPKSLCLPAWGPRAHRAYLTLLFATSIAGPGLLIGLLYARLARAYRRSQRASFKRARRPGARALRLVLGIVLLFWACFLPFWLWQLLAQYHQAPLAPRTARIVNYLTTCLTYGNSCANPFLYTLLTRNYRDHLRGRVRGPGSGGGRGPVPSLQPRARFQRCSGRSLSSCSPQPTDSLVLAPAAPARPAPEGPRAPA

Muscarinic acetylcholine receptor M1, sequence (P11229 whole entry Y381A): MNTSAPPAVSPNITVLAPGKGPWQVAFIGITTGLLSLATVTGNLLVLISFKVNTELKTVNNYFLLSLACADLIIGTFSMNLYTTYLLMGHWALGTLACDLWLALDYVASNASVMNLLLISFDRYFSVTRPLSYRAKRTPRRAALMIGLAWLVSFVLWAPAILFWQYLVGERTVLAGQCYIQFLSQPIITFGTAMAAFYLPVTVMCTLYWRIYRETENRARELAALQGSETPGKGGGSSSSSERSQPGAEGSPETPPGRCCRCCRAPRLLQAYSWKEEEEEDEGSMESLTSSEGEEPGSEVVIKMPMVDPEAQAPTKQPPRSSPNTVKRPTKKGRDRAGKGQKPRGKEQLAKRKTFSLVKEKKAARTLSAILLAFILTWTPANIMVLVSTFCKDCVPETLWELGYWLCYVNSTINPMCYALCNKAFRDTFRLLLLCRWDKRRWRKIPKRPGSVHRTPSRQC
Adenosine receptor A2a, sequence (P29274 whole entry): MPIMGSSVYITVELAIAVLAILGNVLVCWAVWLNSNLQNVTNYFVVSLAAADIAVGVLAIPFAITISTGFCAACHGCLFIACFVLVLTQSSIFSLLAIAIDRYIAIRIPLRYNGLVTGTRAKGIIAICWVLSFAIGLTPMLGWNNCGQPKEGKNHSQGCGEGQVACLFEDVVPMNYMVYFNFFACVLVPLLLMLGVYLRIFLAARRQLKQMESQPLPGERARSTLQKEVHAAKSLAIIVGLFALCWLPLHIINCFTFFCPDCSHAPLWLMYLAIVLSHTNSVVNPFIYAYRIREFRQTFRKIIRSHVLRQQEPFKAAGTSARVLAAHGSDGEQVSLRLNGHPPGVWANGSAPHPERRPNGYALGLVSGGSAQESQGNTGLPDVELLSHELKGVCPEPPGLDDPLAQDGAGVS
Alpha-1A adrenergic receptor, sequence (P35348 whole entry): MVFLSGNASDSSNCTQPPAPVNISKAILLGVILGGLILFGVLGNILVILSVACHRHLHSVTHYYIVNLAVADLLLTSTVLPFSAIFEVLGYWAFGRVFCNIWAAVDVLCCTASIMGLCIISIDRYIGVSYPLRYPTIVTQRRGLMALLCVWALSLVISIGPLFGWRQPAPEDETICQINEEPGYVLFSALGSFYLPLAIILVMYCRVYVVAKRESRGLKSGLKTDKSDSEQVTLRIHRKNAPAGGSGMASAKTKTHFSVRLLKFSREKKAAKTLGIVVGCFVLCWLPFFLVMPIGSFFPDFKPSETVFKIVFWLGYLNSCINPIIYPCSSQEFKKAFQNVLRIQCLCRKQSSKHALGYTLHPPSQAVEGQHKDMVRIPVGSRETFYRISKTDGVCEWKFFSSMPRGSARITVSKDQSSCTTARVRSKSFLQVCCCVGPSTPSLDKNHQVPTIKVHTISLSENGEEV
Sodium-dependent serotonin transporter, sequence (P31645 whole entry): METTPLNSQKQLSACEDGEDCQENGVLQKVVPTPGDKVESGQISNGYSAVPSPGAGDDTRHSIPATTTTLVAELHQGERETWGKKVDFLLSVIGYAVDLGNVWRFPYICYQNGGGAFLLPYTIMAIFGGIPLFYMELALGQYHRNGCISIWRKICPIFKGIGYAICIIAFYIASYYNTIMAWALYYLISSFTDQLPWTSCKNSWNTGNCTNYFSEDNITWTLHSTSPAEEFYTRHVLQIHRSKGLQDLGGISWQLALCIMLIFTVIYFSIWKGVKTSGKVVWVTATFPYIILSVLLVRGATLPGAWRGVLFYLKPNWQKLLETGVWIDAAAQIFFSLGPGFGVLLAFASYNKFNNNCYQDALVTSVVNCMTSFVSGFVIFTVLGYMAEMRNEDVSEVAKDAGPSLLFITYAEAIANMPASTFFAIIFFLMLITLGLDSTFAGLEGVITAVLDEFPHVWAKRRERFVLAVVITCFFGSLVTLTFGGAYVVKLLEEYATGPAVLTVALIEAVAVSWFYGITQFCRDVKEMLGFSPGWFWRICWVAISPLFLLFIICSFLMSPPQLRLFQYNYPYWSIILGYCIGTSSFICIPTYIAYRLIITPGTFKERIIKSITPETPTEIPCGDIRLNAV
Muscarinic acetylcholine receptor M3, sequence (P20309 whole entry): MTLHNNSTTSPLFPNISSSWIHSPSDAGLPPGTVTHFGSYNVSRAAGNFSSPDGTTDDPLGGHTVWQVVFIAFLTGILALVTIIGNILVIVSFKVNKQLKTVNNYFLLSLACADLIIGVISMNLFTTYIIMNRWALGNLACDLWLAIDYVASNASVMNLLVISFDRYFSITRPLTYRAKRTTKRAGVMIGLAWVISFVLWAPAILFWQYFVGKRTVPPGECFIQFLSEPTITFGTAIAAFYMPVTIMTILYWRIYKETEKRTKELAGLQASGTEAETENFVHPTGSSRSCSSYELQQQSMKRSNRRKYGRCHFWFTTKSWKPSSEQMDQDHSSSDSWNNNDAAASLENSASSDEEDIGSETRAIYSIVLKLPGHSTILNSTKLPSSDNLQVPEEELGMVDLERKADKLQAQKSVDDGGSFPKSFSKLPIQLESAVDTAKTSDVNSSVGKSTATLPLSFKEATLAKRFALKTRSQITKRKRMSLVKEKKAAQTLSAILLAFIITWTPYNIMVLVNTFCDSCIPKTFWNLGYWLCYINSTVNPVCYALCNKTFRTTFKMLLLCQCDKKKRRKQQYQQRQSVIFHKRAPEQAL
Sodium-dependent noradrenaline transporter, sequence (P23975 whole entry): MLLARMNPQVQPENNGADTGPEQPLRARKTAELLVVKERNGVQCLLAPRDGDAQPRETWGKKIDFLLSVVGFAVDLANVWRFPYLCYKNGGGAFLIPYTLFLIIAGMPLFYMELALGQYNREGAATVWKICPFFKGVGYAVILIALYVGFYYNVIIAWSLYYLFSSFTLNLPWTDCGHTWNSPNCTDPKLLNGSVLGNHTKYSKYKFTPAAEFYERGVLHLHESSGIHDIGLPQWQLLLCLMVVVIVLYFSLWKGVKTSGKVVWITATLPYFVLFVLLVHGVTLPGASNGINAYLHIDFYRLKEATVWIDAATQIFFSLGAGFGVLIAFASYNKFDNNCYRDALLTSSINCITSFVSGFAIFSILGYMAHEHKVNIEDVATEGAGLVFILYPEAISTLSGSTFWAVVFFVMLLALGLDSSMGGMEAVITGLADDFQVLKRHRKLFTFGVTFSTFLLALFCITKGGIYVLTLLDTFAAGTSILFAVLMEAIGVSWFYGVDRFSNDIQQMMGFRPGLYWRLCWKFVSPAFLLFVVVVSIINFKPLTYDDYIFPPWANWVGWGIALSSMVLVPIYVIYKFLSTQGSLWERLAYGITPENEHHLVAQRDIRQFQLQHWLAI
5-hydroxytryptamine receptor 2B, sequence (P41595 whole entry): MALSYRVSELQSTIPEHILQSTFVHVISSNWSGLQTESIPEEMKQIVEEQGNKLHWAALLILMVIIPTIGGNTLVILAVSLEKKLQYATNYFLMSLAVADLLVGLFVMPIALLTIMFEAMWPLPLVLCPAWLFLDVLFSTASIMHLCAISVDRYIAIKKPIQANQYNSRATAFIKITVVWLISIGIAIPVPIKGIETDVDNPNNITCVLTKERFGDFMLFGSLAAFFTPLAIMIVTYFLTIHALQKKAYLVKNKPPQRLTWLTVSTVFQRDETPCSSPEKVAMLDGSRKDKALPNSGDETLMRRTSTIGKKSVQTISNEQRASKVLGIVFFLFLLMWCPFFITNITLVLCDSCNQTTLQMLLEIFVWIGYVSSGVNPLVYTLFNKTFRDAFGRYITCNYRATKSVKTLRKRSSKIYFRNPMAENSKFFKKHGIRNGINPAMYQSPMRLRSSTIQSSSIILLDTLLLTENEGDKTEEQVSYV
D(2) dopamine receptor, sequence (P14416 whole entry): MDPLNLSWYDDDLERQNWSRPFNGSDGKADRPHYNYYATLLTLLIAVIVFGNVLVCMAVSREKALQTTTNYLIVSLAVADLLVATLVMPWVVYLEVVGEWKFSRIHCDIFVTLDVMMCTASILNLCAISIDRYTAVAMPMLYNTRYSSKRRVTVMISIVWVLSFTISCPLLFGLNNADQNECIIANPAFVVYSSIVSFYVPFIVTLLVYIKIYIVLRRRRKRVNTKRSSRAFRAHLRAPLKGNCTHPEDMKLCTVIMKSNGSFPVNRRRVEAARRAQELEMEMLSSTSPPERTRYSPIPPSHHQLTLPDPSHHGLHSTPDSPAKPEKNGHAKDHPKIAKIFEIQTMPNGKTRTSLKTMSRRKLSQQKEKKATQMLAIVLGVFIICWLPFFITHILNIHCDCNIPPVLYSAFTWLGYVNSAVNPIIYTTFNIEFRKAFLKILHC

O=C(Cc1ccccc1)NC1CCN(CCCN2C(=O)COc3ccccc32)CC1
Emax [1]: 6%
QH (Homo sapiens): 1.4 L/min
Activity (Mus musculus): Dose-dependent effect
concentration at 1 h [2]: 240 ng/g
Ki [3]: ≥ 1 µM
Ki (D(2) dopamine receptor): ≥ 1 µM
Ki [4]: ≥ 1 µM
Ki [5]: ≥ 1 µM
Ki [6]: ≥ 1 µM
Ki [7]: ≥ 1 µM
Ki [8]: ≥ 1 µM
Ki (Adenosine receptor A2a): ≥ 1 µM
Ki [9]: ≥ 1 µM
Ki [10]: 0.26 µM
EC50 [11]: 0.097 µM
Ki [12]: ≥ 1 µM
Ki [13]: ≥ 1 µM
Ki [14]: ≥ 1 µM
